The nature of the data set: Solubility in water. The conditions noted are these: free base. The class given is physicochemical. As for the experimental part:
Although Compound A is a very promising drug, it is a difficult compound to formulate. In particular, it is […] in water (<0.01 mg/ml for the free base). […] In addition, different polymorphs can have different rates of uptake in the body, leading to lower or higher biological activity than desired. In extreme cases, an undesired polymorph can even show toxicity. […] However, even though polymorphism has been a subject for intensive investigations, understanding and controlling this phenomenon represents a substantial scientific challenge. It is hard to predict whether a given molecule will crystallize in one or several crystal forms, and to find conditions leading to such crystallization.

Structures are written as SMILES.

`Cc1c(N(C(=O)c2cc(-c3cc(Cl)ccc3C(=O)N3Cc4ccccc4C[C@H]3CN3CCOCC3)n(C)c2C)c2ccc(O)cc2)cc(C#N)n1C` [Compound A, 5-(5-chloro-2-{[(3S)-3-(morpholin-4-ylmethyl)-3,4-dihydroisoquinolin-2(1H)-yl]carbonyl}phenyl)-N-(5-cyano-1,2-dimethyl-1H-pyrrol-3-yl)-N-(4-hydroxyphenyl)-1,2-dimethyl-1H-pyrrole-3-carboxamide] had a solubility of less than 10 µg/mL.

Source of the values: patent US20240417390A1, “HYDROGEN SULFATE SALT OF A BCL-2 INHIBITOR, RELATED CRYSTALLINE FORM, METHOD FOR PREPARING THE SAME AND PHARMACEUTICAL COMPOSITIONS CONTAINING THE SAME” (LES LABORATOIRES SERVIER, priority 2018, published 2024).
